Test results taken from patent publication US20260116868A1 (Arcus Biosciences, Inc., priority 2023, published 2026).

Biological target: T1, Cbl-b (Homo sapiens, UniProt Q13191)
T1 construct: biotin (biotinylated protein)
Assay: Cbl-b probe displacement HTRF binding assay
Settings: 0.4 nM Cbl-b, 150 nM BODIPY probe
Protocol: The affinity with which compounds of the present disclosure bind to Cbl-b was assessed using probe displacement homologous time resolved fluorescence (HTRF) assays. The assays used a BODIPY™ conjugated probe (Example 54 from WO 2020264398) and biotinylated Cbl-b. The assays were performed in assay buffer consisting of 20 mM Hepes, 150 mM NaCl, 0.01% Triton X-100, 0.5 mM TCEP, 0.01% BSA. On the day of the assay, a 20 point, 1:2 master serial dilution of each compound was prepared in DMSO to span a final concentration range of […] to 0 nM. Two hundred nanoliters of diluted compound was added to each well of a 384-well plate. Fifteen microliters of biotinylated- Cbl-b resuspended in assay buffer were added to each well and the plate incubated for 60 minutes at room temperature prior to addition of 5 μL of BODIPY™ probe in assay buffer. Final assay conditions included 0.4 nM of Cbl-b and 150 nM of BODIPY™ probe. After a further 15 minutes of incubation at room temperature, 5 μl of Streptavidin-Terbium cryptate reagent at 5-fold final concentration was added to each well of the 384-well plate. Binding of a probe to Cbl-b results in an increase of HTRF signal. HTRF signal was measured by Envision plate reader, while competition of a compound of the present disclosure with probe results in a decrease of signal. Percentage maximum activity in each test well was calculated based on DMSO (maximum activity, 0% displacement) and no protein control wells (baseline activity, 100% displacement). Binding affinity was determined from a dose response curve fitted using a standard four parameter fit equation. See Table 7 for data for compounds (Cbl-b Binding (IC50)).

T1 sequence (Q13191 whole entry, species assumed): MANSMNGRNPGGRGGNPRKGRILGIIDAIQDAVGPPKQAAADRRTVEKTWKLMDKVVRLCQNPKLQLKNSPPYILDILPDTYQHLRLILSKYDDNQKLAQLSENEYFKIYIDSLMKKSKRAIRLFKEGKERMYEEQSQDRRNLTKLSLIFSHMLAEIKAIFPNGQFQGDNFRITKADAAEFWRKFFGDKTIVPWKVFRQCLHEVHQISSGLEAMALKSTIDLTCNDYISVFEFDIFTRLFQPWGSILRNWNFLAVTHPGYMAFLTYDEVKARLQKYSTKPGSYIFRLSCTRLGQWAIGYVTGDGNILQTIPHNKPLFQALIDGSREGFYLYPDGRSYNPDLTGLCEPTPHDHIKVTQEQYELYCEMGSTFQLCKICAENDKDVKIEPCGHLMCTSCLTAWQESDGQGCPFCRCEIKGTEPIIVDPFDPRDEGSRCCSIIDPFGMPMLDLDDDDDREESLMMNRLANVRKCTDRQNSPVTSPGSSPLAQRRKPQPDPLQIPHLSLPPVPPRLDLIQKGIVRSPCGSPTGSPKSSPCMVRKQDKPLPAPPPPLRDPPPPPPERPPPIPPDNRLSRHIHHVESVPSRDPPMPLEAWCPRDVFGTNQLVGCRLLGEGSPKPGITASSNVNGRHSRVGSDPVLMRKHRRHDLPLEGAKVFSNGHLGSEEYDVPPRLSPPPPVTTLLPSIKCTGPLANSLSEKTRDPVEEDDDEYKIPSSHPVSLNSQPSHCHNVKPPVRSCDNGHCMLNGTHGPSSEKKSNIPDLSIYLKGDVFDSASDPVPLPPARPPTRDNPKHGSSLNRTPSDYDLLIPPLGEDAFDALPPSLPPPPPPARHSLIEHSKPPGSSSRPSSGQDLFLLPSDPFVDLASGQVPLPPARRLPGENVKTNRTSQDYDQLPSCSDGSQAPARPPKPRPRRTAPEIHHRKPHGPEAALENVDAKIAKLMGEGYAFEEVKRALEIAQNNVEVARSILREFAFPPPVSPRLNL

IC50 [nM]	SMILES
< 100	C=CCn1cc(CN2CCC[C@H](C)C2)cc(C(=O)Nc2cccc(C3(c4nncn4C)CC(C)C3)c2)c1=O (mixture of isomers) [Example 77, N-[3-[3-methyl-1-(4-methyl-1,2,4-triazol-3-yl)cyclobutyl]phenyl]-5-[[(3S)-3-methylpiperidin-1-yl]methyl]-2-oxo-1-prop-2-enylpyridine-3-carboxamide]
< 100	CC(C)Oc1cc(-c2ccc(C#N)cc2C(=O)N2CC(F)(F)C2)cc(NC(=O)c2cc(CNC(C)C3CC3)cn(C3CC3)c2=O)n1 (stereo in doubt) [Example 140, N-(4-{4-cyano-2-[(3,3-difluoro-1-azetidinyl)carbonyl]phenyl}-6-isopropoxy-2-pyridyl)-1-cyclopropyl-5-{[(S)-1-cyclopropylethylamino]methyl}-2-oxo-1,2-dihydronicotinamide]
< 100	CC(C)Oc1cc(-c2ccc(C#N)cc2C(=O)N2CC(F)(F)C2)cc(NC(=O)c2cc(CNC[C@@H]3CCCO3)cn(C3CC3)c2=O)n1 [Example 96, N-(4-{4-cyano-2-[(3,3-difluoro-1-azetidinyl)carbonyl]phenyl}-6-isopropoxy-2-pyridyl)-5-[({[(S)-tetrahydro-2-furyl]methyl}amino)methyl]-1-cyclopropyl-2-oxo-1,2-dihydronicotinamide]
< 100	CC(C)CNCc1cc(C(=O)Nc2cc(-c3ccc(C#N)cc3C(=O)N3CC(F)(F)C3)cc(OC(C)C)n2)c(=O)n(C2CC2)c1 [Example 97, N-(4-{4-cyano-2-[(3,3-difluoro-1-azetidinyl)carbonyl]phenyl}-6-isopropoxy-2-pyridyl)-1-cyclopropyl-5-[(isobutylamino)methyl]-2-oxo-1,2-dihydronicotinamide]
< 100	CC(C)Oc1cc(-c2ccc(OC(F)F)cc2C(=O)N2CC(F)(F)C2)cc(NC(=O)c2cc(CN[C@@H](C)C3CCC3)cn(C3CC3)c2=O)n1 [Example 98]
< 100	CC(C)CNCc1cc(C(=O)Nc2cc(-c3ccc(OC(F)F)cc3C(=O)N3CC(F)(F)C3)cc(OC(C)C)n2)c(=O)n(C2CC2)c1 [Example 99, N-(4-{2-[(3,3-difluoro-1-azetidinyl)carbonyl]-4-difluoromethoxyphenyl}-6-isopropoxy-2-pyridyl)-1-cyclopropyl-5-[(isobutylamino)methyl]-2-oxo-1,2-dihydronicotinamide]
< 100	CC(C)Oc1cc(-c2ccc(C#N)cc2C(=O)N2CC(F)(F)C2)cc(NC(=O)c2cc(CN[C@@H](C)C3CCC3)cn(C)c2=O)n1 [Example 100, N-[4-[4-cyano-2-(3,3-difluoroazetidine-1-carbonyl)phenyl]-6-propan-2-yloxypyridin-2-yl]-5-[[[(1S)-1-cyclobutylethyl]amino]methyl]-1-methyl-2-oxopyridine-3-carboxamide]
< 100	CC(C)Oc1cc(-c2c(F)cc(C#N)cc2C(=O)N2CC(F)(F)C2)cc(NC(=O)c2cc(CNC[C@@H]3CCCO3)cn(C3CC3)c2=O)n1 [Example 101, N-[4-[4-cyano-2-(3,3-difluoroazetidine-1-carbonyl)-6-fluorophenyl]-6-propan-2-yloxypyridin-2-yl]-1-cyclopropyl-2-oxo-5-[[[(2S)-oxolan-2-yl]methylamino]methyl]pyridine-3-carboxamide]
< 100	CCNc1cc(-c2ccc(OC(F)F)cc2C(=O)N2CC(F)C2)cc(NC(=O)c2cc(CN[C@@H](C)C3CCC3)cn(C)c2=O)n1 [Example 103]
< 100	CCOc1cc(-c2ccc(OC(F)F)cc2C(=O)N2CC(F)C2)cc(NC(=O)c2cc(CNC[C@H](C)OC)cn(C3CC3)c2=O)n1 [Example 104, N-(4-{4-Difluoromethoxy-2-[(3-fluoro-1-azetidinyl)carbonyl]phenyl}-6-ethoxy-2-pyridyl)-5-{[(S)-2-methoxypropylamino]methyl}-1-cyclopropyl-2-oxo-1,2-dihydronicotinamide]
< 100	Cn1cc(CNC[C@@H]2CCCCO2)cc(C(=O)Nc2cc(-c3ccc(Cl)cc3C(=O)N3CC(F)(F)C3)cc(C3CC3)n2)c1=O [Example 108, N-[4-[4-chloro-2-(3,3-difluoroazetidine-1-carbonyl)phenyl]-6-cyclopropylpyridin-2-yl]-1-methyl-5-[[[(2S)-oxan-2-yl]methylamino]methyl]-2-oxopyridine-3-carboxamide]
< 100	CC(C)CNCc1cc(C(=O)Nc2cc(-c3ccc(OC(F)F)cc3C(=O)N3CC(F)(F)C3)cc(C3CC3)n2)c(=O)n(C)c1 [Example 109, N-[6-cyclopropyl-4-[2-(3,3-difluoroazetidine-1-carbonyl)-4-(difluoromethoxy)phenyl]pyridin-2-yl]-1-methyl-5-[(2-methylpropylamino)methyl]-2-oxopyridine-3-carboxamide]
< 100	Cn1cc(CNC[C@@H]2COCCO2)cc(C(=O)Nc2cc(-c3ccc(OC(F)F)cc3C(=O)N3CC(F)(F)C3)cc(C3CC3)n2)c1=O [Example 110, N-(6-cyclopropyl-4-{2-[(3,3-difluoro-1-azetidinyl)carbonyl]-4-difluoromethoxyphenyl}-2-pyridyl)-5-[({[(R)-1,4-dioxan-2-yl]methyl}amino)methyl]-1-methyl-2-oxo-1,2-dihydronicotinamide]
< 100	Cn1cc(CNC[C@@H]2CCCCO2)cc(C(=O)Nc2cc(-c3ccc(OC(F)F)cc3C(=O)N3CC(F)(F)C3)cc(C3CC3)n2)c1=O [Example 111, N-[6-cyclopropyl-4-[2-(3,3-difluoroazetidine-1-carbonyl)-4-(difluoromethoxy)phenyl]pyridin-2-yl]-1-methyl-5-[[[(2S)-oxan-2-yl]methylamino]methyl]-2-oxopyridine-3-carboxamide]
< 100	CC(C)Oc1cc(-c2ccc(OC(F)F)cc2C(=O)N2CC(F)(F)C2)cc(NC(=O)c2cc(CN[C@@H](C)C3CCC3)cn(C)c2=O)n1 [Example 112]
< 100	CO[C@@H](C)CNCc1cc(C(=O)Nc2cc(-c3ccc(OC(F)F)cc3C(=O)N3CC(F)(F)C3)cc(OC(C)C)n2)c(=O)n(C)c1 [Example 113, N-(4-{2-[(3,3-difluoro-1-azetidinyl)carbonyl]-4-difluoromethoxyphenyl}-6-isopropoxy-2-pyridyl)-5-{[(S)-2-methoxypropylamino]methyl}-1-methyl-2-oxo-1,2-dihydronicotinamide]
< 100	CC(C)Oc1cc(-c2ccc(OC(F)F)cc2C(=O)N2CC(F)(F)C2)cc(NC(=O)c2cc(CN[C@@H](C)C(C)C)cn(C)c2=O)n1 [Example 114]
< 100	CC(C)Oc1cc(-c2ccc(OC(F)F)cc2C(=O)N2CC(F)(F)C2)cc(NC(=O)c2cc(CN[C@@H](C)C3CC3)cn(C)c2=O)n1 [Example 115, N-(4-{2-[(3,3-difluoro-1-azetidinyl)carbonyl]-4-difluoromethoxyphenyl}-6-isopropoxy-2-pyridyl)-5-{[(S)-1-cyclopropylethylamino]methyl}-1-methyl-2-oxo-1,2-dihydronicotinamide]
< 100	CO[C@@H](C)[C@H](C)NCc1cc(C(=O)Nc2cc(-c3ccc(OC(F)F)cc3C(=O)N3CC(F)(F)C3)cc(OC(C)C)n2)c(=O)n(C)c1 [Example 116, N-(4-{2-[(3,3-difluoro-1-azetidinyl)carbonyl]-4-difluoromethoxyphenyl}-6-isopropoxy-2-pyridyl)-5-{[(1S,2S)-2-methoxy-1-methylpropylamino]methyl}-1-methyl-2-oxo-1,2-dihydronicotinamide]
< 100	CO[C@@H](C)CNCc1cc(C(=O)Nc2cc(-c3ccc(C#N)cc3C(=O)N3CC(F)(F)C3)cc(OC(C)C)n2)c(=O)n(C)c1 [Example 117, N-(4-{4-cyano-2-[(3,3-difluoro-1-azetidinyl)carbonyl]phenyl}-6-isopropoxy-2-pyridyl)-5-{[(S)-2-methoxypropylamino]methyl}-1-methyl-2-oxo-1,2-dihydronicotinamide]
< 100	CCOc1cc(-c2c(F)cc(C#N)cc2C(=O)N2CC(F)(F)C2)cc(NC(=O)c2cc(CNC[C@@H]3CCCO3)cn(C)c2=O)n1 [Example 118, N-[4-[4-cyano-2-(3,3-difluoroazetidine-1-carbonyl)-6-fluorophenyl]-6-ethoxypyridin-2-yl]-1-methyl-2-oxo-5-[[[(2S)-oxolan-2-yl]methylamino]methyl]pyridine-3-carboxamide]
< 100	CCOc1cc(-c2c(F)cc(C#N)cc2C(=O)N2CC(F)(F)C2)cc(NC(=O)c2cc(CN[C@@H](C)C3CC3)cn(C)c2=O)n1 [Example 119, N-[4-[4-cyano-2-(3,3-difluoroazetidine-1-carbonyl)-6-fluorophenyl]-6-ethoxypyridin-2-yl]-5-[[[(1S)-1-cyclopropylethyl]amino]methyl]-1-methyl-2-oxopyridine-3-carboxamide]
< 100	CCOc1cc(-c2c(F)cc(C#N)cc2C(=O)N2CC(F)(F)C2)cc(NC(=O)c2cc(CNC[C@H](C)OC)cn(C)c2=O)n1 [Example 120, N-[4-[4-cyano-2-(3,3-difluoroazetidine-1-carbonyl)-6-fluorophenyl]-6-ethoxypyridin-2-yl]-5-[[[(2S)-2-methoxypropyl]amino]methyl]-1-methyl-2-oxopyridine-3-carboxamide]
